In patent US10660900B2 (priority 2014, dated 2020):
Several values for one entry are separate records, joined by “and”; a condition that tells them apart may be missing. Identical values can stand only once. Like-named read-outs stand apart in the source and are kept apart here.

Columns and labels:
calf OPRM = calf OPRM (Bos taurus, UniProt P79350); details: cited from earlier work; for Ki: read-out: Ki
[1] = QT interval in opioid-dependent patients; type: in vivo, human; details: 60, 120, 180 mg; first 24 hours; correlated with serum concentration
Procedure: Patients' QT intervals were evaluated at regular time points throughout the study. […] A goodness-of-fit plot for the observed and predicted relation between noribogaine plasma levels and ΔΔQTc1 is provided in FIG. 9C.

[2] = Time to resumption of opioid substitution treatment and withdrawal scales (COWS, SOWS, OOWS); type: in vivo, human
calf OPRK = calf OPRK (Bos taurus, UniProt Q2KIP6); details: cited from earlier work
[3] = Single ascending oral dose pharmacokinetics of noribogaine in healthy volunteers (plasma and urine, LCMSMS); details: for CL/F: mean (SD), n = 6
human OPRM [4] = molecular target: T1, human OPRM (Homo sapiens, UniProt P35372); type: cell-based; design: host or cells: CHO-K1
human OPRM [5] = molecular target: T1, human OPRM; assay: biochemical; design: expressed in transfected cells; host or cells: CHO-K1 (cell line provided by Dr. Toll, Torrey Pines Institute); membranes prepared in house
OPRK = OPRK (Homo sapiens, UniProt P41145); assay: Bias quantification G-protein/Beta-arrestin2; design: expressed in transfected cells; host or cells: CHO-K1
Procedure: Coupling efficiency (e-coupling) values indicated the relationship between the apparent binding affinity Ki versus the apparent functional potency EC50 of a given agonist ligand and used the equation pKi-pEC50. […] For inhibitory ligands, e-signal was calculated using maximal level of inhibition (Imax) normalized from 0 (basal, buffer) to 1 (agonist without inhibitor). Bias-coupling (quantification of pathway bias) was evaluated by subtracting the EC50 or the Ke issued from the G-protein pathway assays by those issued from β-arrestin pathway assays for a given ligand and in a linear (nM) scale. Bias-efficacy in favor of the G-protein pathway was evaluated by dividing the functional activation and the functional inhibition maximum responses (e-signal) from the G-protein pathway by the beta-arrestin pathway assays for a given ligand.

[6] = Treatment emergent adverse events in opioid-dependent patients, single dose

T1 sequence (P35372 whole entry): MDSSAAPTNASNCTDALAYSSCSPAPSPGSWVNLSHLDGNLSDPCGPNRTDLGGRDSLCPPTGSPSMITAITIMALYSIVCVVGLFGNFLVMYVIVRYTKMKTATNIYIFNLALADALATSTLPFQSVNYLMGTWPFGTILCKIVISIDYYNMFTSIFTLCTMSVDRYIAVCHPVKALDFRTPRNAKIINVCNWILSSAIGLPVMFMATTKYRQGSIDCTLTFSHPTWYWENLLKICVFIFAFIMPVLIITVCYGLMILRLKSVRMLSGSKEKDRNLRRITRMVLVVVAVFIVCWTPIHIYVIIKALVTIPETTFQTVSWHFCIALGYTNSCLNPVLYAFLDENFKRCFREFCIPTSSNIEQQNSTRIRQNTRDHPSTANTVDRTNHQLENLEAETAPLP
Sequence of OPRK (P41145 whole entry): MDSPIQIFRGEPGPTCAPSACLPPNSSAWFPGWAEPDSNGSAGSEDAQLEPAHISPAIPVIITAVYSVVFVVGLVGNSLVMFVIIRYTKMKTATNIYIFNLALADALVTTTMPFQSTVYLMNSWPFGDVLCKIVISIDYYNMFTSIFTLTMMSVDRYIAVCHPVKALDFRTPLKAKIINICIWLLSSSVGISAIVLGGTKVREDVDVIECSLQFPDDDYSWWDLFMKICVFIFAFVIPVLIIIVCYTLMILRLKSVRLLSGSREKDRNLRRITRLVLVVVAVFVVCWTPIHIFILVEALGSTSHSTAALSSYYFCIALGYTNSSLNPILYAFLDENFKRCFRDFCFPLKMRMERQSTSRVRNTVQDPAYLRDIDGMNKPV
Sequence of calf OPRM (P79350 whole entry): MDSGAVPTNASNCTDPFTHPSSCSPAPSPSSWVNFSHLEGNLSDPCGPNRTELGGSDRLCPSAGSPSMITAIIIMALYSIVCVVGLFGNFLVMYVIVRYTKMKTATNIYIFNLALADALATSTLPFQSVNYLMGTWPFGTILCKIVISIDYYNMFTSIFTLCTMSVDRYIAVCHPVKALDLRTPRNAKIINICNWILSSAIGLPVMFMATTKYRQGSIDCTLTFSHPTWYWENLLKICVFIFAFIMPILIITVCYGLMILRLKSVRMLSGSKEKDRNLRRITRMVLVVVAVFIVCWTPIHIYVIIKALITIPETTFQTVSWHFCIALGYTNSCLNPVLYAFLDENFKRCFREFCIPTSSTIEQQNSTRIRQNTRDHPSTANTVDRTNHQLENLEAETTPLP
Sequence of calf OPRK (Q2KIP6 whole entry): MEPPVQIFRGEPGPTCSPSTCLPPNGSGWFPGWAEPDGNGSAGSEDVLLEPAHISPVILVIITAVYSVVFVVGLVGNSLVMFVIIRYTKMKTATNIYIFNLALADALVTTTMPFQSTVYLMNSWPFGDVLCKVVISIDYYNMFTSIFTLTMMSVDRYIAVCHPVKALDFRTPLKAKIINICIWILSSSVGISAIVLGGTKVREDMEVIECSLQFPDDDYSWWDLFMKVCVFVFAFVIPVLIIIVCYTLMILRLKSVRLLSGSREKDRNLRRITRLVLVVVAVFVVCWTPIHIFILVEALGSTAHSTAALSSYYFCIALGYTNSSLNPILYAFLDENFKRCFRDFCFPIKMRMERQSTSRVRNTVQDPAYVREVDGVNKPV

CC[C@H]1CC2C[C@H]3c4[nH]c5ccc(O)cc5c4CCN(C2)C13 [Noribogaine, noribogaine]
Ki (calf OPRM; calf OPRM): 1520 nM | pKi (calf OPRM; calf receptor, literature): 5.6 | Ki (calf OPRM; calf receptor, literature): 2660 nM | QT interval prolongation (ΔQTcI) [1]: dose-dependent increase in QT interval prolongation | withdrawal symptoms (COWS, OOWS, SOWS), first six hours after dosing ([2]; 120 mg noribogaine): fewer withdrawal symptoms than the other patients | average time to resumption of opioids (OST) ([2]; single 120 mg dose): greater than 20 hours | Ki (calf OPRK; calf OPRK): 960 nM | pKi (calf OPRK; calf receptor, literature): 6.0 | CL/F ([3]; 3 mg single oral noribogaine): 41.4 (7.0) L/h | CL/F ([3]; 10 mg single oral noribogaine): 42.3 (12.0) L/h | CL/F ([3]; 30 mg single oral noribogaine): 46.9 (16.4) L/h | CL/F ([3]; 60 mg single oral noribogaine): 34.0 (11.4) L/h | dose relation of Cmax and AUC ([3]; 3-60 mg single oral doses): increased linearly with dose | Volume of distribution ([3]; across dose groups): 1417 to 3086 L | time of peak concentrations after oral noribogaine dosing ([3]; plasma, across dose groups): 2 to 3 h | Efficacy (human OPRM [4]): 3% | Efficacy (inhibition) (human OPRM [4]): −100~ % | agonism of β-Arrestin-2 recruitment at OPRM (human OPRM [4]): not an agonist at OPRM | e-coupling (pKi-pKe) (human OPRM [4]): ~1.10 | inhibition of agonist response (human OPRM [4]): 60-100% | pEC50 (human OPRM [4]): 5.9 | Efficacy (Emax) (human OPRM [5]): 9.4% | Efficacy (inhibition) (human OPRM [5]): −100~ % | e-coupling (pKi-pEC50) (human OPRM [5]): 1.02 | e-coupling (pKi-pKe) (human OPRM [5]): 1.10 | pEC50 (human OPRM [5]): 4.8 | right-shift of EC50 of DAMGO and morphine (human OPRM [5]): ~1 log | Ki (human OPRM [5]; Ke): 19000 nM and 28000 nM | Emax (human OPRM [5]; read-out: Efficacy (Emax)): 10% | efficacy bias relative to 6′GNTI (OPRK): 2.4 × | Bias-coupling, Bias G-protein/Beta-arrestin2 (OPRK; Activation): 32 | Bias-efficacy, Bias G-protein/Beta-arrestin2 (OPRK; Activation): 0.59 | Bias-coupling, Bias G-protein/Beta-arrestin2 (OPRK; Inhibition): 144 | Bias-efficacy, Bias G-protein/Beta-arrestin2 (OPRK; Inhibition): −0.35 | Catheter Site Infection ([6]; 60 mg noribogaine (N = 6)): 0 | Catheter Site Pain ([6]; 60 mg noribogaine (N = 6)): 0 | Catheter Site Related Reaction ([6]; 60 mg noribogaine (N = 6)): 0 | Cellulitis ([6]; 60 mg noribogaine (N = 6)): 0 | Diarrhoea ([6]; 60 mg noribogaine (N = 6)): 0 | Diy Mouth ([6]; 60 mg noribogaine (N = 6)): 0 | Ear and Labyrinth Disorders ([6]; 60 mg noribogaine (N = 6)): 0 | Epistaxis ([6]; 60 mg noribogaine (N = 6)): 0 | Euphoric Mood ([6]; 60 mg noribogaine (N = 6)): 0 | General Disorders and Administration Site Conditions ([6]; 60 mg noribogaine (N = 6)): 0 | Hyperaesthesia ([6]; 60 mg noribogaine (N = 6)): 0 | Infections and Infestations ([6]; 60 mg noribogaine (N = 6)): 0 | Limb Discomfort ([6]; 60 mg noribogaine (N = 6)): 0 | Malaise ([6]; 60 mg noribogaine (N = 6)): 0 | Nausea ([6]; 60 mg noribogaine (N = 6)): 0 | Oropharyngeal Pain ([6]; 60 mg noribogaine (N = 6)): 0 | Pseudoparalysis ([6]; 60 mg noribogaine (N = 6)): 0 | Respiratory, Thoracic and Mediastinal Disorders ([6]; 60 mg noribogaine (N = 6)): 0 | Rhinorrhoea ([6]; 60 mg noribogaine (N = 6)): 0 | Skin Discomfort ([6]; 60 mg noribogaine (N = 6)): 0 | Skin Irritation ([6]; 60 mg noribogaine (N = 6)): 0 | Skin and Subcutaneous Tissue Disorders ([6]; 60 mg noribogaine (N = 6)): 0 | Somnoience ([6]; 60 mg noribogaine (N = 6)): 0 | Tinnitus ([6]; 60 mg noribogaine (N = 6)): 0 | Tremor ([6]; 60 mg noribogaine (N = 6)): 0 | Urinary Tract Infection ([6]; 60 mg noribogaine (N = 6)): 0 | Vomiting ([6]; 60 mg noribogaine (N = 6)): 0 | Back Pain ([6]; 120 mg noribogaine (N = 6)): 0 | Catheter Site Infection ([6]; 120 mg noribogaine (N = 6)): 0 | Catheter Site Related Reaction ([6]; 120 mg noribogaine (N = 6)): 0 | Depressed Mood ([6]; 120 mg noribogaine (N = 6)): 0 | Dry Eye ([6]; 120 mg noribogaine (N = 6)): 0 | Dyspepsia ([6]; 120 mg noribogaine (N = 6)): 0 | Euphoric Mood ([6]; 120 mg noribogaine (N = 6)): 0 | Limb Discomfort ([6]; 120 mg noribogaine (N = 6)): 0 | Malaise ([6]; 120 mg noribogaine (N = 6)): 0 | Musculoskeletal and Connective Tissue Disorders ([6]; 120 mg noribogaine (N = 6)): 0 | Psychiatric Disorders ([6]; 120 mg noribogaine (N = 6)): 0 | Somnoience ([6]; 120 mg noribogaine (N = 6)): 0 | Urinary Tract Infection ([6]; 120 mg noribogaine (N = 6)): 0 | Catheter Site Infection ([6]; 180 mg noribogaine (N = 6)): 0 | Catheter Site Pain ([6]; 180 mg noribogaine (N = 6)): 0 | Depressed Mood ([6]; 180 mg noribogaine (N = 6)): 0 | Diarrhoea ([6]; 180 mg noribogaine (N = 6)): 0 | Dry Eye ([6]; 180 mg noribogaine (N = 6)): 0 | Dyspepsia ([6]; 180 mg noribogaine (N = 6)): 0 | Ear and Labyrinth Disorders ([6]; 180 mg noribogaine (N = 6)): 0 | Epistaxis ([6]; 180 mg noribogaine (N = 6)): 0 | Euphoric Mood ([6]; 180 mg noribogaine (N = 6)): 0 | Hyperaesthesia ([6]; 180 mg noribogaine (N = 6)): 0 | Malaise ([6]; 180 mg noribogaine (N = 6)): 0 | Oropharyngeal Pain ([6]; 180 mg noribogaine (N = 6)): 0 | Pseudoparalysis ([6]; 180 mg noribogaine (N = 6)): 0 | Psychiatric Disorders ([6]; 180 mg noribogaine (N = 6)): 0 | Respiratory, Thoracic and Mediastinal Disorders ([6]; 180 mg noribogaine (N = 6)): 0 | Rhinorrhoea ([6]; 180 mg noribogaine (N = 6)): 0 | Skin Discomfort ([6]; 180 mg noribogaine (N = 6)): 0 | Skin Irritation ([6]; 180 mg noribogaine (N = 6)): 0 | Skin and Subcutaneous Tissue Disorders ([6]; 180 mg noribogaine (N = 6)): 0 | Somnoience ([6]; 180 mg noribogaine (N = 6)): 0 | Tinnitus ([6]; 180 mg noribogaine (N = 6)): 0 | Tremor ([6]; 180 mg noribogaine (N = 6)): 0 | hallucinatory effects ([6]; 60, 120 or 180 mg single dose): no hallucinatory effects
